Measurements from patent US20100015258A1, “Rice Bran Extracts and Methods of Use Thereof” (priority 2008, published 2010).
Where two headings read alike, the source gives them in different places.

Columns and labels:
[1] = molecular target: T1, Fatty Acid Binding Protein 4 (FABP4) (Homo sapiens, UniProt P15090); assay: FABP4 Inhibitor/Ligand Screening Kit (fluorescence); conditions: based on contribution across all actives, read-out: Predicted IC50
T1 construct: purchased Cayman, Ann Arbor, Mich
T1 sequence (P15090 whole entry, species assumed): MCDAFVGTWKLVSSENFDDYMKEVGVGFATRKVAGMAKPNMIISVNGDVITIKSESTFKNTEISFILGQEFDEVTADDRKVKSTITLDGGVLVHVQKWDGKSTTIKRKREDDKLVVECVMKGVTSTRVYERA
Method: Fatty Acid Binding Protein 4 (FABP4) inhibition was determined using the Fatty Acid Binding Protein 4 (FABP4) Inhibitor/Ligand Screening Kit (Cayman, Ann Arbor, Mich.). […] Potential inhibitors/ligands of the FABP4 protein were incubated to FABP4 in assay buffer for 15 minutes at room temperature. Arachidonic acid was used as a known inhibitor standard for comparison. The positive control wells received no inhibitor/ligand (i.e., no arachidonic acid or extract) and the negative control wells received no FABP4. The extracts, in solution, were then exposed to a developer that will fluoresce when bound to FABP4. If FABP4 is inhibited, reduction in fluorescence yield is observed. Fluorescence was quantified using a Synergy 4 plate reader that is tuned to excitation/emission wavelengths of 370 nm and 475 nm, respectively. The fluorescence of the negative controls was subtracted from the positive control wells, and the fluorescence from the “undetected” wells was subtracted from the corresponding “detected” wells. An IC50 value was determined based on the percent fluorescence of the corrected extract wells relative to the corrected positive controls.

3T3-L1 cells = assay: [1,2-3H]2-Deoxy-D-glucose (2-deoxyglucose) uptake; type: cell-based; conditions: for CPM (glucose uptake): 3T3-L1 cells
Method: 1. [1,2-^3H]2-Deoxy-D-glucose (2-deoxyglucose) Uptake: Cells, 3T3-L adipocytes, were grown and differentiated as described below. Prior to [^3H]2-deoxyglucose uptake, cells were switched to DMEM with 0.1% bovine serum albumin for 6 h. The [^3H]2-deoxyglucose uptake was assayed as described (D. R. Cooper, J. E. Watson, N. Patel, P. Illingworth, M. Cevedo-Duncan, J. Goodnight, C. E. Chalfant, and H. Mischak, 1999. Ectopic expression of protein kinase CbetaII, -delta, and -epsilon, but not-betaI or -zeta, provide for insulin stimulation of glucose uptake in NIH-3T3 cells. Arch. Biochem. Biophys., 372:69-79; T. P Ciraldi, O. G. Kolterman, and J. M. Olesky, 1981. Mechanism of the postreceptor defect in insulin action in human obesity: decrease in glucose transport system activity. J. Clin Invest., 68:875-880.). […] Uptake was measured by the addition of 10 nmol of [^3H] 2-deoxyglucose (50-150 μCi/μmol) and followed by incubation for 6 min at 37° C. The uptake was terminated by aspiration of media and cell monolayers were washed three times with cold DPBS. Cells were lysed with 1 ml of 1% (w/v) SDS, and radioactivity determined by liquid scintillation counting. The 2-Deoxyglucose uptake refers to transport of the analogue across the plasma membrane operating in tandem with its phosphorylation by hexokinase.

[2] = range across SRB Extracts 1 to 14

| Compound | IC50 ([1]; in SRB Extract 6) | IC50 [1, 2] | further results |
| --- | --- | --- | --- |
| C=C(CCC(C)C1CCC2(C)C3CCC4CC(O)CCC45CC35CCC12C)C(C)C (centres unmarked) [14-Methyl-9,19-cycloergost-24(28)-en-3-ol] | 60.5 µM | 21.3 to 25.7 µM | – |
| CCCCCCCCC=CCCCCCCCC1CC(O)C(=O)O1 (centres unmarked) [5-(8-Heptadecenyl)dihydro-3-hydroxy-2(3H)-furanone] | 96.8 µM | 38.9 to 117 µM | – |
| CC1(C)CCC2(C)CCC3(C)C(=C2C1)C=CC1C2(C)CCCC(C)(C)C2CCC13C (centres unmarked) [11,13(18)-Oleanadiene] | 91 µM | 28.3 to 90.3 µM | – |
| 4,5-Dihydro-4-hydroxy-5-methyl-2-tetradecyl-2(3H)-furanone | 73.3 µM | 61 to 85 µM | – |
| CC1CCC2(C)CCC3(C)C(=CCC4C5(C)CCCC(C)C5CCC43C)C2C1C (centres unmarked) [24-Nor-12-ursene] | 199 µM | 17.4 to 160 µM | – |
| 24-Nor-4(23),9(11)-fernadiene | – | 29.9 to 61.3 µM | – |
| CCCCCCCCCCCCCCCCCCCCCCCCCCCCCCOC(=O)C=Cc1ccc(O)c(O)c1 [3-(3,4-Dihydroxyphenyl)-2-propenoicacid Triacontyl ester] | 29.7 µM | 7.99 to 101 µM | – |
| Insulin: insulin, comparator for glucose uptake stimulation | – | – | Increase over 200 nM Insulin (3T3-L1 cells; 50 nM insulin): 0.6; Increase over Control (3T3-L1 cells; 50 nM insulin): 1.1; Max CPM (3T3-L1 cells; 50 nM insulin): 149 CPM; Increase over 200 nM Insulin (3T3-L1 cells; 100 nM insulin): 0.6; Increase over Control (3T3-L1 cells; 100 nM insulin): 1.2; Max CPM (3T3-L1 cells; 100 nM insulin): 157 CPM; Increase over Control (3T3-L1 cells; 200 nM insulin): 2.0; Max CPM (3T3-L1 cells; 200 nM insulin): 266 CPM; CPM (glucose uptake) (3T3-L1 cells; insulin 50 nM): 149 CPM; CPM (glucose uptake) (3T3-L1 cells; insulin 100 nM): 157 CPM; CPM (glucose uptake) (3T3-L1 cells; insulin 200 nM): 266 CPM |

Now from value to compound, other results behind:

| IC50 ([1]; in SRB Extract 6) | IC50 [1, 2] | Compound | further results |
| --- | --- | --- | --- |
| 24.7 µM | 4.89 to 56 µM | CCCCC/C=C\C/C=C\CCCCCCCC(=O)OCC(CO)OC(=O)CCCCCCC/C=C\C/C=C\CCCCC (centres unmarked) [Glycerol 1,2-di-(9Z,12Z-octadecadienoate)] | – |
| 26.5 µM | 6.96 to 81.2 µM | CC(=O)CC/C=C(\C)CC/C=C(\C)CC/C=C(\C)CC/C=C(\C)CC/C=C(\C)CC/C=C(\C)CC/C=C(\C)CCC=C(C)C [Bombiprenone] | – |
| 40 µM | 17.4 to 69.5 µM | CCCCCCCCCCCC/C=C\CC/C=C\CC[C@@H](O)[C@H](O)CCCCCCCCCCC1=C[C@H](C)OC1=O [Montecristin] | – |
| 69.4 µM | 44.2 to 80.4 µM | CC[C@H]1CC[C@H]2[C@@H]3CC(O)C4CC(O)C(O)C[C@]4(C)[C@H]3CC[C@]12C (some centres unmarked) [Pregnane-2,3,6-triol] | – |
